Results as given in publication PMC13203959, “New inhibitors of the Pseudomonas aeruginosa enzyme, PqsE, and methods assessing their potential to induce a conformational change via active site binding” (mSphere, 2026).
Read-outs that look alike come from different tables or passages of the source.

Legend:
[1] = target: T1, PqsE(WT) (Pseudomonas aeruginosa, UniProt P20581); experiment: Esterase assay: inhibition of PqsE-catalyzed MU-butyrate hydrolysis; format: biochemical; details: for maximum level of inhibition of PqsE(WT): % inhibition
T1 construct: 6xHis (N); made in house; host or cells: E. coli BL21 (DE3)
Method: Purified PqsE, diluted in assay buffer (50 mM Tricine, 0.01% Triton X-100, pH 8.5), was added to the wells of an opaque 384-well plate at a final concentration of 125 nM. Test molecules were diluted in DMSO and added to the wells at the indicated concentrations (5% DMSO final). The plate was then incubated at room temperature for 5 min. MU-butyrate in assay buffer was added to the plate at a final concentration of 2 µM. The plate was incubated at room temperature for 20 min prior to measuring fluorescence (excitation: 360 nm and emission: 450 nm) to monitor the hydrolysis of MU-butyrate. All data were plotted in the Prism 9.0 program, and IC50 values were calculated from inhibition curves fit to the data.

[2] = target: T1, PqsE(WT); experiment: Differential scanning fluorimetry (DSF), PqsE(WT); format: binding; details: PqsE(WT) 2 µM, compound 100 µM
Method: Compounds HJ1, HJ2, and HJ5 were tested for the ability to bind and shift the Tm of purified PqsE and PqsE variants using DSF as described previously with some modifications ([18]). Briefly, compounds in DMSO were diluted in assay buffer (50 mM Tris, 150 mM NaCl, 200 µM MnCl2, pH 8) to achieve a final concentration of 100 µM (1% DMSO). Compound solutions were transferred to the wells of a 96-well PCR plate (ThermoFisher), and control wells were prepared with 1% DMSO (negative control). SYPRO Orange Dye and PqsE solutions were diluted in assay buffer and subsequently added to the wells to reach final concentrations of 7× SYPRO Orange and 2 µM PqsE. Final volume in each well was 80 µL. Plates were sealed with transparent optical adhesive covers (ThermoFisher) prior to measurement of SYPRO Orange fluorescence (ex, 580 nm; em, 623 nm) in a QuantStudio 3 Real-Time PCR system (ThermoFisher) over an increasing temperature gradient from 25 to 90°C (temperature increased at a rate of 0.1°C/s). Tm was determined from first derivative plots of the raw fluorescence curves using the Prism 9.0 software.

[3] = target: T2, PqsE(E280A) (Pseudomonas aeruginosa, UniProt P20581, E280A); format: binding; details: PqsE(E280A) 2 µM, compound 100 µM
T2 construct: made in house

[4] = target: T3, PqsE(E182W) (Pseudomonas aeruginosa, UniProt P20581, E182W); format: binding; details: PqsE(E182W) 2 µM, compound 100 µM
T3 construct: made in house

[5] = target: T4, PqsE(E182W/E280A) (Pseudomonas aeruginosa, UniProt P20581, E182W/E280A); format: binding; details: PqsE(E182W/E280A) 2 µM, compound 100 µM
T4 construct: made in house

[6] = target: T5, PqsE(S285W) (Pseudomonas aeruginosa, UniProt P20581, S285W); format: binding; details: compound 100 µM; for Tm of PqsE-HJ complex / ∆Tm, shift in melting temperature vs DMSO-treated control: PqsE(S285W) 2 µM; for significance of shift in Tm compared to HJ2: PqsE(S285W)
T5 construct: 6xHis (N); made in house; host or cells: E. coli BL21 (DE3)

[7] = target: T6, PqsE(S285A) (Pseudomonas aeruginosa, UniProt P20581, S285A); experiment: Differential scanning fluorimetry (DSF), PqsE(S285A); format: binding; details: compound 100 µM; for Tm of PqsE-HJ complex / ∆Tm, shift in melting temperature vs DMSO-treated control: PqsE(S285A) 2 µM; for significance of shift in Tm compared to HJ2: PqsE(S285A)
[8] = target: T7, PqsE(E182A) (Pseudomonas aeruginosa, UniProt P20581, E182A); format: binding; details: PqsE(E182A) 2 µM, compound 100 µM
T7 construct: made in house

[9] = target: T8, PqsE(S285D) (Pseudomonas aeruginosa, UniProt P20581, S285D); format: binding; details: PqsE(S285D) 2 µM, compound 100 µM
T8 construct: made in house

[10] = target: T9, PqsE(S285Y) (Pseudomonas aeruginosa, UniProt P20581, S285Y); format: binding; details: PqsE(S285Y) 2 µM, compound 100 µM
T9 construct: made in house

[11] = target: T6, PqsE(S285A); experiment: Esterase assay: inhibition of MU-butyrate hydrolysis by PqsE(S285A); format: biochemical; details: for increase of IC50 against PqsE(S285A) variant versus PqsE(WT): 20 min; for maximum level of inhibition of PqsE(S285A): % inhibition
[12] = target: T5, PqsE(S285W); format: biochemical; details: esterase assay
[13] = system: wild-type P. aeruginosa PA14; experiment: Pyocyanin assay, wild-type strain; format: cell-based, Pseudomonas aeruginosa
Method: P. aeruginosa PA14 cultures were grown overnight in LB at 37°C with shaking. The saturated cultures were then diluted 1:1,000 into fresh LB containing test molecules in DMSO (final 1% DMSO). Cultures then grew for ~17 h at 37°C with shaking at 200 rpm. Next, 1 mL of each culture was collected and pelleted by centrifugation at 13,000 rpm for 3 min. The supernatant was carefully transferred to a cuvette, and the OD695 was measured in a Genesys 20 ThermoSpectronic spectrophotometer. The cell pellet was resuspended in 1 mL of PBS and then transferred into the wells of a clear 96-well plate at 100 µL per well. The OD600 was measured to assess cell density. Pyocyanin production (OD695) of the supernatants was normalized to cell density (OD600 of the resuspended cell pellets).

[14] = system: P. aeruginosa PA14 pqsE(S285W) mutant strain; format: cell-based; details: 50 or 100 µM
[15] = target: T10, PqsE-RhlR interaction (Pseudomonas aeruginosa, UniProt P20581); experiment: PqsE-RhlR in vitro pull-down; format: binding; details: up to 100 µM, 1 µM 6xHis-PqsE(WT), RhlR-containing lysate
T10 construct: made in house; host or cells: Escherichia coli (PqsE purified; RhlR as crude lysate from a pET23a-rhlR strain grown with mBTL)
Method: RhlR was expressed following a previously established method ([18], [19]). Briefly, lysate was prepared from cultures of an Escherichia coli strain carrying rhlR on a pET23a plasmid that had been treated with the RhlR-solubilizing ligand, mBTL ([33]). The pull-down assay was conducted following a previously established method with some modifications ([18]). Briefly, purified 6xHis-PqsE(WT) was incubated with test molecules at the specified concentrations for 10 min at room temperature. The treated PqsE was then added to 100 µL of RhlR-containing lysate in lysis buffer (50 mM Tris-HCl, 150 mM NaCl, 20 mM imidazole, pH = 8.0) to a total final volume of 150 µL and a final PqsE concentration of 1 µM (final 0.6% DMSO). The mixtures were incubated at 4°C with rotation for 30 min before MagneHis Ni resin (Promega) was added (10 µL of settle volume), and incubation at 4°C with rotation was continued for 1 h. The Ni resin was then washed three times with lysis buffer, and then PqsE complexes were eluted with 50 µL elution buffer (50 mM Tris-HCl, 150 mM NaCl, 500 mM imidazole, pH = 8.0). The eluted proteins were then denatured in Laemmli sample buffer at 95°C and analyzed by SDS-PAGE.

[16] = target: T1, PqsE(WT); details: 10 min trypsin

SMILES | Tm of PqsE-HJ complex [2] | ∆Tm, shift in melting temperature vs DMSO-treated control [2] | Tm of PqsE-HJ complex [3] | ∆Tm, shift in melting temperature vs DMSO-treated control [3] | Tm of PqsE-HJ complex [4] | ∆Tm, shift in melting temperature vs DMSO-treated control [4] | Tm of PqsE-HJ complex [5] | ∆Tm, shift in melting temperature vs DMSO-treated control [5] | Tm of PqsE-HJ complex [6] | ∆Tm, shift in melting temperature vs DMSO-treated control [6] | Tm of PqsE-HJ complex [7] | ∆Tm, shift in melting temperature vs DMSO-treated control [7] | Tm of PqsE-HJ complex [8] | ∆Tm, shift in melting temperature vs DMSO-treated control [8] | Tm of PqsE-HJ complex [9] | ∆Tm, shift in melting temperature vs DMSO-treated control [9] | Tm of PqsE-HJ complex [10] | ∆Tm, shift in melting temperature vs DMSO-treated control [10] | maximum level of inhibition of PqsE(WT) [1] | increase of IC50 against PqsE(S285A) variant versus PqsE(WT) [11] | further results
CC(C)(C)CNC(=O)Nc1ccc(NC(=O)c2cccc3cn[nH]c23)cc1 [BB584, reference compound] |  |  |  |  |  |  |  |  |  |  |  |  |  |  |  |  |  |  |  |  | IC50 ([1]; 125 nM PqsE, 2 µM MU-butyrate, pH 8.5, read-out: IC50, inhibition of PqsE enzyme function (MU-butyrate hydrolysis)): 108 nM
Cc1n[nH]c2c(C(=O)Nc3ccc(NC(=O)OC(C)(C)C)cc3)cccc12 [HJ2] | 67.7 °C | 0.74 °C | 67.1 °C | 0.61 °C | 73.9 °C | 0.48 °C | 70.0 °C | 0.20 °C | 66.8 °C | 0.07 °C | 67.9 °C | 0.61 °C | 69.2 °C | -0.47 °C | 67.0 °C | 0.14 °C | 68.2 °C | 0.41 °C |  |  | inhibitory activity on enzymatic activity of PqsE ([1]; esterase assay, dilution series): virtually no effect
CC(C)(C)OC(=O)Nc1ccc(NC(=O)c2cccc3cn[nH]c23)cc1 [HJ1] | 70.5 °C | 3.56 °C | 68.8 °C | 2.28 °C | 74.4 °C | 0.98 °C | 72.4 °C | 2.58 °C | 66.8 °C | 0.07 °C | 68.1 °C | 0.81 °C | 70.1 °C | 0.50 °C | 67.2 °C | 0.35 °C | 68.3 °C | 0.54 °C | 100% | approximately 10 fold | maximum level of inhibition of PqsE(S285A) [11]: ~ 70%; effect of S285W substitution on binding/inhibition [12]: completely abrogated binding; significance of shift in Tm compared to HJ2 [6]: neither HJ1 nor HJ5 induced significant shifts in Tm; significance of shift in Tm compared to HJ2 [7]: neither HJ1 nor HJ5 induced significant shifts in Tm; effect on pyocyanin production ([13]; pqsE(WT) strain, up to 100 µM): no appreciable effect; effect on pyocyanin production [14]: no appreciable effect; effect on PqsE-RhlR complex formation [15]: neither HJ1 nor HJ5 showed any effect on complex formation
Cc1ccc(C(=O)Nc2ccc(NC(=O)OC(C)(C)C)cc2)c2[nH]ncc12 [HJ5] | 68.8 °C | 1.82 °C | 67.7 °C | 1.21 °C | 75.5 °C | 2.05 °C | 71.9 °C | 2.12 °C | 67.5 °C | 0.74 °C | 68.6 °C | 1.35 °C | 70.6 °C | 1.00 °C | 67.3 °C | 0.48 °C | 68.2 °C | 0.40 °C | ~ 50% | approximately 10 fold | IC50 [1]: 379 nM; maximum level of inhibition of PqsE(S285A) [11]: approximately 10%; effect of S285W substitution on binding/inhibition [12]: completely abrogated binding; significance of shift in Tm compared to HJ2 [6]: neither HJ1 nor HJ5 induced significant shifts in Tm; significance of shift in Tm compared to HJ2 [7]: neither HJ1 nor HJ5 induced significant shifts in Tm; decrease in pyocyanin production compared to DMSO-treated WT strain ([13]; 100 µM, WT strain, ~17 h): ~ 37%; inhibition at 50 µM ([13]; Pseudomonas aeruginosa, PA14, 50 µM, WT strain, ~17 h, read-out: inhibition of pyocyanin production compared to DMSO-treated WT strain): ~30%; effect on PqsE-RhlR complex formation [15]: neither HJ1 nor HJ5 showed any effect on complex formation; band intensity of undigested protein (band 1) after trypsin exposure ([16]; increasing concentrations up to 100 µM): increases as the concentration of HJ5 increases; induction of PqsE(E182W)-like banding pattern (conformational change) upon tryptic digest ([16]; up to 100 µM, 10 µM PqsE(WT)): did not produce a banding pattern similar to that of PqsE(E182W)
